In the supplement of paper PMC10307832:

How the values were obtained:
Assay in all cases: relative viability (nuclei count vs DMSO), 5 days (fraction); higher = more cells survive
[1] = compound: C(C(=O)C(=O)O)Br [Bromopyruvate] + CCNC(=O)c1noc(-c2cc(C(C)C)c(O)cc2O)c1-c1ccc(CN2CCOCC2)cc1 [Luminespib] (partner 0.01 µM)
Summary of the method: (§1)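 For relative viability, nuclei counts in treated wells were divided by those in vehicle wells. Lung cancer cell lines had been pin-tool dosed in 1536-well plates the day after seeding and cultured for 5 days, then fixed and stained in one step (final 0.05% Triton X-100, 1% formaldehyde, 1 ug/ml Hoechst) and imaged at 4×. Doses were one drug alone or a fixed anchor-drug dose plus five library-drug doses (not always all listed) in √10 steps, and values are duplicate-plate medians.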

Bicalutamide + OSI-027 = compound: CC(O)(CS(=O)(=O)c1ccc(F)cc1)C(=O)Nc1ccc(C#N)c(C(F)(F)F)c1 [Bicalutamide] + COc1cccc2cc(-c3nc([C@H]4CC[C@H](C(=O)O)CC4)n4ncnc(N)c34)[nH]c12 [OSI-027] (partner 0.5 µM)
Summary of the method: as §1

[2] = compound: C(C(=O)C(=O)O)Br [Bromopyruvate] + CS(=O)(=O)N1CCN(Cc2cc3nc(-c4cccc5[nH]ncc45)nc(N4CCOCC4)c3s2)CC1 [Pictilisib] (partner 1 µM)
Summary of the method: as §1

Bicalutamide + AZD7762 = compound: CC(O)(CS(=O)(=O)c1ccc(F)cc1)C(=O)Nc1ccc(C#N)c(C(F)(F)F)c1 [Bicalutamide] + NC(=O)Nc1cc(-c2cccc(F)c2)sc1C(=O)N[C@H]1CCCNC1 [AZD7762] (partner 0.2 µM)
Summary of the method: as §1

Cell Line | relative viability ([1]; first compound 1 µM) | relative viability ([1]; first compound 3.162 µM) | relative viability ([1]; first compound 10 µM) | relative viability ([1]; first compound 31.62 µM) | relative viability ([1]; first compound 100 µM) | relative viability (Bicalutamide + OSI-027; first compound 0.08 µM) | relative viability (Bicalutamide + OSI-027; first compound 0.253 µM) | relative viability (Bicalutamide + OSI-027; first compound 0.8 µM) | relative viability (Bicalutamide + OSI-027; first compound 2.53 µM) | relative viability ([2]; first compound 1 µM) | relative viability ([2]; first compound 3.162 µM) | relative viability ([2]; first compound 10 µM) | relative viability ([2]; first compound 31.62 µM) | relative viability ([2]; first compound 100 µM) | relative viability (Bicalutamide + AZD7762; first compound 0.08 µM) | relative viability (Bicalutamide + AZD7762; first compound 0.253 µM) | relative viability (Bicalutamide + AZD7762; first compound 0.8 µM) | relative viability (Bicalutamide + AZD7762; first compound 2.53 µM)
NCI-H1734 | 0.174 | 0.225 | 0.212 | 0.175 | 0.201 | 0.66 | 0.473 | 0.614 | 0.488 | 0.493 | 0.486 | 0.542 | 0.551 | 0.451 | 0.568 | 0.439 | 0.645 | 0.571
NCI-H1755 | 0.501 | 0.516 | 0.421 | 0.466 | 0.465 | 0.768 | 0.687 | 0.82 | 0.524 | 0.484 | 0.512 | 0.448 | 0.467 | 0.456 | 0.382 | 0.388 | 0.475 | 0.365
NCI-H1792 | 0.664 | 0.487 | 0.53 | 0.573 | 0.423 | 0.731 | 0.634 | 0.855 | 0.768 | 0.306 | 0.29 | 0.328 | 0.317 | 0.212 | 0.756 | 0.522 | 0.741 | 0.644
NCI-H1793 | 0.207 | 0.148 | 0.145 | 0.218 | 0.303 | 0.278 | 0.238 | 0.302 | 0.269 | 0.391 | 0.32 | 0.305 | 0.272 | 0.237 | 0.705 |  | 0.432 | 0.282
NCI-H1915 | 0.673 | 0.849 | 0.925 | 0.706 | 0.781 | 0.639 | 0.516 | 0.653 | 0.535 | 0.95 | 0.934 | 0.9 | 0.955 | 0.897 | 0.721 | 0.616 | 0.712 | 0.682
NCI-H1944 | 0.716 | 0.785 | 0.967 | 0.7 | 0.734 | 0.476 | 0.292 | 0.442 | 0.389 | 0.353 | 0.354 | 0.352 | 0.315 | 0.365 | 0.496 | 0.438 | 0.519 | 0.366
NCI-H1975 | 0.227 | 0.286 | 0.084 | 0.255 | 0.253 | 0.741 | 0.642 | 0.746 | 0.633 | 0.301 | 0.318 | 0.323 | 0.326 | 0.3 | 0.769 | 0.783 | 0.722 | 0.667
NCI-H1993 | 0.483 | 0.997 | 1.26 | 0.862 | 0.833 | 0.479 | 0.594 | 0.523 | 0.511 | 0.827 | 0.729 | 0.895 | 0.935 | 0.774 | 0.539 | 0.744 | 0.919 | 0.58
NCI-H2085 | 0.417 | 0.425 | 0.508 | 0.396 | 0.217 | 0.832 | 0.642 | 0.788 | 0.628 | 0.429 | 0.426 | 0.463 | 0.437 | 0.498 | 0.983 | 0.99 | 1.02 | 0.901
NCI-H2087 | 0.141 | 0.176 | 0.16 | 0.175 | 0.161 | 0.598 | 0.512 | 0.579 | 0.572 | 0.834 | 0.984 | 0.96 | 0.844 | 0.886 | 1.29 | 1.29 | 1.58 | 1.26
NCI-H2126 | 0.888 | 0.892 | 0.943 | 0.896 | 0.874 | 0.681 | 0.619 | 0.673 | 0.755 | 0.531 | 0.511 | 0.456 | 0.562 | 0.509 | 0.994 | 0.918 | 1.01 | 0.856
NCI-H2170 | 0.75 | 0.979 | 0.689 | 0.574 | 0.583 | 0.765 | 0.636 | 0.668 | 0.705 | 0.435 | 0.367 | 0.274 | 0.319 | 0.306 | 0.805 | 0.817 | 1.26 | 0.902
NCI-H2347 | 0.783 | 0.522 | 0.686 | 0.401 | 0.702 | 0.395 | 0.327 | 0.515 | 0.427 | 0.899 | 0.478 | 0.737 | 0.541 | 0.677 | 0.797 | 0.753 | 0.753 | 0.73
NCI-H2405 | 0.719 | 0.643 | 0.738 | 0.741 | 0.675 | 0.651 | 0.568 | 0.624 | 0.632 | 0.441 | 0.524 | 0.431 | 0.349 | 0.517 | 0.739 | 0.713 | 0.88 | 0.694
NCI-H3122 | 0.0847 | 0.0952 | 0.105 | 0.0703 | 0.0612 | 0.951 | 0.905 | 1.25 | 0.881 | 0.553 | 0.664 | 0.879 | 0.554 | 0.567 | 0.98 | 1 | 1.05 | 1.01
PC-3 [JPC-3] | 0.797 | 0.752 | 0.766 | 0.608 | 0.693 | 0.797 | 0.808 | 0.768 | 0.737 | 0.775 | 0.724 | 0.731 | 0.694 | 0.733 | 0.86 | 0.815 | 0.912 | 0.874
PC-14 | 0.191 | 0.184 | 0.169 | 0.157 | 0.203 | 0.825 | 0.697 | 1.6 | 0.606 | 0.714 | 0.692 | 0.898 | 0.808 | 0.611 | 0.314 | 0.329 | 0.443 | 0.353
RERF-LC-KJ | 1.28 | 1.32 | 1.2 | 1.21 | 1.23 | 0.679 | 0.56 | 0.563 | 0.543 | 0.537 | 0.563 | 0.644 | 0.617 | 0.495 | 0.982 | 0.847 | 1.47 | 0.867
